The values that follow come from US20250134825A1, “METHOD FOR PRODUCING MEDICATIONS AND VACCINES” (MSLsolutions GmbH, priority 2022, published 2025).

The conditions of series [1]: single substance, value given in the literature; cited from earlier work.
Series [2] is described as follows: Solubility in solvents (2,5-dimethylisosorbide, water, polyols). As to conditions: temperature range 55° C. to 70° C.
A short description of series [3]: Stability of vitamin C (model substance for mRNA) in the carrier system. Particulars: more than 15 wt. % vitamin C, with panthenol, composition of Table 16. The class given is physicochemical.

As for `CCCCCCCCCCCCCCCCCC(=O)OC[C@H](COP(=O)([O-])OCC[N+](C)(C)C)OC(=O)CCCCCCCCCCCCCCCCC` [DSPC, 1,2-distearoyl-sn-glycero-3-phosphocholine], in series [1], the HLB is 4.5.
Take `CC(C)CCC[C@@H](C)[C@H]1CC[C@H]2[C@@H]3CC=C4C[C@@H](O)CC[C@]4(C)[C@H]3CC[C@]12C` [cholesterol]: in series [2], the “solubility in 2,5-dimethylisosorbide” value is “dissolved in high concentrations”.
As for `O=C1O[C@H]([C@@H](O)CO)C(O)=C1O` [vitamin C, ascorbic acid], in series [3], the “stability in the composition or carrier system” value is reported as “high stability”.
Take `CC[C@H](/C=C/[C@@H](C)[C@H]1CC[C@H]2[C@@H]3CC=C4C[C@@H](O)CC[C@]4(C)[C@H]3CC[C@]12C)C(C)C` [stigmasterol]: in series [2], the “concentration completely dissolved in 2,5-dimethylisosorbide” value is recorded as “over 50%”.
